Reference: patent US7767240B2, “Microbiological control in poultry processing” (priority 2001, dated 2010)

System: Escherichia coli field strain
Assay: Whole bird bacteria reduction, chill tank (Example 2)
Type: cell-based
Conditions: 1.5 h chill tank
Experimental: The trial events and experimental design used were as follows: • a) For all treatments a total of 190 birds were processed in a normal fashion. Each treatment involved use of 10 birds. • b) A warm (100° F.) bath was prepared containing 5×10^4 DelMarVa (Delaware-Maryland farm area) field Escherichia coli stain bacteria per mL. At least 200 mL of total bath fluid was provided for each bird. • c) All birds (both controls and treated) were randomly immersed into the warm bath. Both the inside and outside carcass areas were immersed to assure complete coverage. • d) Each separate chill tank water solution (normal tap water adjusted pH to 8.5, ice added to produce temperatures of <45° F.) contained 2×10^3 per mL bacteria. • e) The chill tank water solutions (at least 750 mL each) were be prepared for each disinfecting treatment, and birds were immersed for a period of 1.5 hours. • f) Each 10 minutes during the 1.5 hour chilling period, the birds were completely lifted out of solution and then reimersed in the solution. After the 1.5 hour chilling period, the birds were taken from the chill water and drained for 30 seconds, then promptly (within 5 minutes) placed into a sterile whole bird stomacher bag containing 400 mL diluent (Butterfield's Phosphate Diluent) bacteria collection. • g) Diluent (400 mL) was added to each carcass contained in a sterile stomacher bag while making sure to pour the diluent into the inside of the abdominal cavity. The carcass was rinsed inside and out with a rocking motion for one minute (ca. 35 RPM). […] After the fluids had been diluted, 0.1 mL of fluid was be placed on a MacConkey agar plate and bacteria counts determined. In cases where the goal of a 25-250 count on the plate was not achieved, another dilution and replating were conducted. • j) After all carcasses for each treatment had been dipped, water sample bacteria were determined. • k) Total bacteria per bird were calculated. […]

Measured: Whole Bird Bacteria Reduction (%)

CC1(C)C(=O)N(Br)C(=O)N1Br [DBDMH, 1,3-dibromo-5,5-dimethylhydantoin]
99.9999%: 50 ppm Cl2 (equivalent) | 100 ppm Cl2 (equivalent) | 150 ppm Cl2 (equivalent)
